Type in all cases: biochemical
One assay addresses T1, human Yes1 enzyme (Homo sapiens, UniProt P07947).
T1 construct: made in house
The assay is described as follows: Yes1 enzyme inhibitory activity (time-resolved fluorometry, biotinylated peptide phosphorylation). The following applies: read-out: YES_IC50. In outline:
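Inhibition was expressed against a compound-free control to give IC50, using TR-FRET read-out (Eu-cryptate anti-pTyr antibody, streptavidin-XL665).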

A further assay deals with T2, human Src enzyme (Homo sapiens, UniProt P12931).
T2 construct: purchased Carna Biosciences, Inc. 08-173
T2 sequence (P12931 whole entry): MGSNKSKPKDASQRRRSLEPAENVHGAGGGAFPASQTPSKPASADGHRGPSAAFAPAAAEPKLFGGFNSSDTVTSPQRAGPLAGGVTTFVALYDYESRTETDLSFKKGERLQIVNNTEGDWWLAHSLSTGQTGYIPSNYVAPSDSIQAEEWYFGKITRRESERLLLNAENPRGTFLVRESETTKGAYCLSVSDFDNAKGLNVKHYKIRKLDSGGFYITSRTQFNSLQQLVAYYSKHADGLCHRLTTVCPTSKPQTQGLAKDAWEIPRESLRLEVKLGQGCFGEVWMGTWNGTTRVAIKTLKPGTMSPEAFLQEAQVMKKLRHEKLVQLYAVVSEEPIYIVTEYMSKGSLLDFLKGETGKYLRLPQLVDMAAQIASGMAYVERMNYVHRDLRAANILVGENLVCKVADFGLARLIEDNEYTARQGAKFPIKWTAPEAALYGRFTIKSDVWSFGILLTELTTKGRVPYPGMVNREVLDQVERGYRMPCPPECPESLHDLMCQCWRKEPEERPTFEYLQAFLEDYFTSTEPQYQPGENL
The assay is described as follows: Src enzyme inhibitory activity (time-resolved fluorometry, biotinylated peptide phosphorylation). The following applies: read-out: SRC_IC50. In outline: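 Compounds were tested for blocking tyrosine phosphorylation of a biotinylated peptide substrate by recombinant human Src. Phosphorylated product was quantified by time-resolved fluorometry using europium cryptate and XL665 conjugates, and IC50 was calculated against the compound-free control.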

The next assay addresses T3, human Lck enzyme (Homo sapiens, UniProt P06239).
T3 construct: purchased Carna Biosciences, Inc. 08-170
In words: Lck enzyme inhibitory activity (time-resolved fluorometry, biotinylated peptide phosphorylation). As to conditions: read-out: LCK_IC50. In outline: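 Readout pairs a europium cryptate-labelled anti-phosphotyrosine antibody with XL665-streptavidin, measured by time-resolved fluorescence. IC50 derived from percent inhibition against untreated controls.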

The mark [1] stands for this setting: biotinylated peptide phosphorylation.

SMILES strings stand for the structures. Where two headings read alike, the source gives them in different places.

IC50 data for 20 compounds are collected here from patent US10479780B2, “Aminopyrazole derivatives” (Chugai Seiyaku Kabushiki Kaisha, priority 2015, dated 2019).

T3 sequence (P06239 whole entry): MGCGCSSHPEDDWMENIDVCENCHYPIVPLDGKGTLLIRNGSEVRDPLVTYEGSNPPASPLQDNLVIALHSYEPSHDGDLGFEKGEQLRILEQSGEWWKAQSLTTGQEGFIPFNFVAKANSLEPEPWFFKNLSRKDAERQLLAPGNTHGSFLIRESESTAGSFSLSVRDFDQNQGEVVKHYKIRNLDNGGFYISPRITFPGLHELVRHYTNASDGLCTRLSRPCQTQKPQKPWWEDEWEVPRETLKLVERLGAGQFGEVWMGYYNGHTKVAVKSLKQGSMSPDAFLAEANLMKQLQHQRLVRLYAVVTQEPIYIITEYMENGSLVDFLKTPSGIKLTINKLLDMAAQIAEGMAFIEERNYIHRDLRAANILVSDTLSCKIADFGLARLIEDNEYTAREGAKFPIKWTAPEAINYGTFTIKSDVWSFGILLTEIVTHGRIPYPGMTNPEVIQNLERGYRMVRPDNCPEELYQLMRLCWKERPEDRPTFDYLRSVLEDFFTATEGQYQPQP
T1 sequence (P07947 whole entry): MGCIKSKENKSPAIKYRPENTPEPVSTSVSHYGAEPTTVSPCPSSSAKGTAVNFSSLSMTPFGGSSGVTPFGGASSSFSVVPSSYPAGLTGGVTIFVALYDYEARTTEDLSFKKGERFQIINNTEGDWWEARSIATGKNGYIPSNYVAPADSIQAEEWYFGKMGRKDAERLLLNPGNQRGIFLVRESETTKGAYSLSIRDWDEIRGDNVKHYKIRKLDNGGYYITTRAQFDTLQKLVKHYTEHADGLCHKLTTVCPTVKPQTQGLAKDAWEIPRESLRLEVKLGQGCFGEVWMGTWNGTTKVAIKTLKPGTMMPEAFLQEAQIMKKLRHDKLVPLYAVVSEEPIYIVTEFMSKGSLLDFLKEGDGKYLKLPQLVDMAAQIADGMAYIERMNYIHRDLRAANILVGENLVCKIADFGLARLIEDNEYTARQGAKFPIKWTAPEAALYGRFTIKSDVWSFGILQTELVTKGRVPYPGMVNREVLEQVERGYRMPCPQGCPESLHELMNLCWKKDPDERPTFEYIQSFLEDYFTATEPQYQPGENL

Consider `Cc1cc(Oc2c(F)cccc2F)ncc1-n1ncc(C(=O)c2cc3cc(F)c(N4C(=O)C(C)(C)NC4=S)cc3[nH]2)c1N` [Example 5-1-115, 3-[2-[5-amino-1-[6-(2,6-difluorophenoxy)-4-methylpyridin-3-yl]pyrazole-4-carbonyl]-5-fluoro-1H-indol-6-yl]-5,5-dimethyl-2-sulfanylideneimidazolidin-4-one], for which the results for the IC50 on human Yes1 enzyme, on human Src enzyme and on human Lck enzyme were 2.3 nM, 52 nM and 7 nM, respectively.

`CCc1cc2cc(C(=O)c3cnn(-c4cnc(Oc5c(F)cccc5F)cc4C)c3N)[nH]c2cc1NS(C)(=O)=O` [Example 5-1-141, N-[2-[5-amino-1-[6-(2,6-difluorophenoxy)-4-methylpyridin-3-yl]pyrazole-4-carbonyl]-5-ethyl-1H-indol-6-yl]methanesulfonamide]: the IC50 on human Yes1 enzyme stood at 2.4 nM; on human Src enzyme it was 75 nM; on human Lck enzyme it was 27 nM.

Consider `Cc1cc(Oc2ccccc2F)ncc1-n1ncc(C(=O)c2cc3cc(F)c(NS(C)(=O)=O)cc3[nH]2)c1N` [Example 4-7-001, N-{2-{5-amino-1-[6-(2-fluorophenoxy)-4-methylpyridin-3-yl]pyrazole-4-carbonyl}-5-fluoro-1H-indol-6-yl}methanesulfonamide], for which the IC50 is 2.2 nM on human Yes1 enzyme (setting [1]), 41 nM at human Src enzyme (setting [1]) and 10 nM at human Lck enzyme (setting [1]).

As for `Cc1cc(Oc2ccccc2F)ccc1-n1ncc(C(=O)c2cc3cc(OC(F)F)c(Br)cc3[nH]2)c1N` [Example 5-1-082, [5-amino-1-[4-(2-fluorophenoxy)-2-methylphenyl]pyrazol-4-yl]-[6-bromo-5-(difluoromethoxy)-1H-indol-2-yl]methanone], the IC50 came out at 1.9 nM at human Yes1 enzyme, 26 nM at human Src enzyme and 11 nM at human Lck enzyme.

For `Cc1cc2cc(C(=O)c3cnn(-c4cc(F)c(Oc5ccccc5F)cc4C)c3N)[nH]c2cc1NS(C)(=O)=O` [Example 5-1-199, N-[2-[5-amino-1-[5-fluoro-4-(2-fluorophenoxy)-2-methylphenyl]pyrazole-4-carbonyl]-5-methyl-1H-indol-6-yl]methanesulfonamide], the IC50 on human Yes1 enzyme came out at 2.7 nM; on human Src enzyme it was 78 nM; at human Lck enzyme, 37 nM.

As to `Cc1cc2cc(C(=O)c3cnn(-c4ccc(Oc5cc(F)ccc5F)cc4C)c3N)[nH]c2cc1NS(C)(=O)=O` [Example 5-1-107, N-[2-[5-amino-1-[4-(2,5-difluorophenoxy)-2-methylphenyl]pyrazole-4-carbonyl]-5-methyl-1H-indol-6-yl]methanesulfonamide], the IC50 amounted to 1.5 nM on human Yes1 enzyme, 96 nM at human Src enzyme and 7.9 nM on human Lck enzyme.

Turning to `Nc1c(C(=O)c2cc3cc(F)c(NS(=O)(=O)CCCF)cc3[nH]2)cnn1-c1c(Cl)cc(Oc2ccccc2F)cc1Cl` [Example 5-1-033, N-[2-[5-amino-1-[2,6-dichloro-4-(2-fluorophenoxy)phenyl]pyrazole-4-carbonyl]-5-fluoro-1H-indol-6-yl]-3-fluoropropane-1-sulfonamide], the IC50 came to 8.4 nM at human Yes1 enzyme, 400 nM at human Src enzyme and 230 nM on human Lck enzyme.

In the case of `Cc1cc2cc(C(=O)c3cnn(-c4cnc(Oc5ccccc5F)cc4C)c3N)[nH]c2cc1N1CCC(N2CCOCC2)CC1` [Example 5-1-078, [5-amino-1-[6-(2-fluorophenoxy)-4-methylpyridin-3-yl]pyrazol-4-yl]-[5-methyl-6-(4-morpholin-4-ylpiperidin-1-yl)-1H-indol-2-yl]methanone], the results for the IC50 at human Yes1 enzyme, at human Src enzyme and on human Lck enzyme were 0.28 nM, 10 nM and 2.4 nM, respectively.

As for `Cc1cc(Oc2ccccc2F)cc(F)c1-n1ncc(C(=O)c2cc3cc(OC(F)F)c(N4CCCC4=O)cc3[nH]2)c1N` [Example 4-25-015, 1-[2-[5-amino-1-[2-fluoro-4-(2-fluorophenoxy)-6-methylphenyl]pyrazole-4-carbonyl]-5-(difluoromethoxy)-1H-indol-6-yl]pyrrolidin-2-one], the IC50 at human Yes1 enzyme (setting [1]) amounted to 4.9 nM; at human Src enzyme (setting [1]) it was 44 nM; at human Lck enzyme (setting [1]) it was 8.2 nM.

For the compound `Cc1cc2cc(C(=O)c3cnn(-c4cnc(Oc5c(F)cccc5F)cc4C)c3N)[nH]c2cc1N1C(=O)NC2(CCC2)C1=O` [Example 5-1-341, 7-[2-[5-amino-1-[6-(2,6-difluorophenoxy)-4-methylpyridin-3-yl]pyrazole-4-carbonyl]-5-methyl-1H-indol-6-yl]-5,7-diazaspiro[3.4]octane-6,8-dione], the IC50 came to 2.7 nM at human Yes1 enzyme, 53 nM on human Src enzyme and 7.4 nM on human Lck enzyme.

Consider `Cc1cc(Oc2c(F)cccc2F)ncc1-n1ncc(C(=O)c2cc3cc(SC(F)F)c(NS(=O)(=O)CCCF)cc3[nH]2)c1N` [Example 5-1-320, N-[2-[5-amino-1-[6-(2,6-difluorophenoxy)-4-methylpyridin-3-yl]pyrazole-4-carbonyl]-5-(difluoromethylsulfanyl)-1H-indol-6-yl]-3-fluoropropane-1-sulfonamide], for which the IC50 on human Yes1 enzyme was 18 nM; on human Src enzyme, 680 nM; at human Lck enzyme it was 140 nM.

With `Cc1ccc(S(=O)(=O)Nc2cc3[nH]c(C(=O)c4cnn(-c5cnc(Oc6c(F)cccc6F)cc5C)c4N)cc3cc2OCC(F)F)cc1` [Example 5-1-300, N-[2-[5-amino-1-[6-(2,6-difluorophenoxy)-4-methylpyridin-3-yl]pyrazole-4-carbonyl]-5-(2,2-difluoroethoxy)-1H-indol-6-yl]-4-methylbenzenesulfonamide], the IC50 at human Yes1 enzyme was determined as 9.5 nM; at human Src enzyme it was 730 nM; on human Lck enzyme, 140 nM.

As to `Cc1cc(Oc2ccccc2F)ccc1-n1ncc(C(=O)c2cc3cc(N4CCOCC4)c(Br)cc3[nH]2)c1N` [Example 5-1-147, [5-amino-1-[4-(2-fluorophenoxy)-2-methylphenyl]pyrazol-4-yl]-(6-bromo-5-morpholin-4-yl-1H-indol-2-yl)methanone], the IC50 on human Yes1 enzyme was found to be 0.57 nM; at human Src enzyme, 5.1 nM; at human Lck enzyme, 12 nM.

Regarding `Cc1cc(Oc2ccccc2F)ccc1-n1ncc(C(=O)c2cc3cc(F)c(NS(=O)(=O)NCC(C)(C)O)cc3[nH]2)c1N` [Example 4-6-004, [5-amino-1-[4-(2-fluorophenoxy)-2-methylphenyl]pyrazol-4-yl]-[5-fluoro-6-[(2-hydroxy-2-methylpropyl)sulfamoylamino]-1H-indol-2-yl]methanone], the IC50 on human Yes1 enzyme (setting [1]) came out at 1.1 nM; at human Src enzyme (setting [1]) it was 41 nM; at human Lck enzyme (setting [1]) it was 6.9 nM.

For the compound `Cc1cc(Oc2ccccc2F)ccc1-n1ncc(C(=O)c2cc3cc(OCC(F)F)c(N4C(=O)NC5(CCN(C6COC6)C5)C4=O)cc3[nH]2)c1N` (stereo not drawn) [Example 5-1-353, 3-(2-(5-amino-1-(4-(2-fluorophenoxy)-2-methylphenyl)-1H-pyrazole-4-carbonyl)-5-(2,2-difluoroethoxy)-1H-indol-6-yl)-7-(oxetan-3-yl)-1,3,7-triazaspiro[4.4]nonane-2,4-dione], the figures for the IC50 on human Yes1 enzyme, at human Src enzyme and on human Lck enzyme were 5.5 nM, 73 nM and 14 nM, respectively.

Take `Cc1cc(Oc2ccccc2F)ccc1-n1ncc(C(=O)c2cc3cc(F)c(NS(=O)(=O)c4cncc(F)c4)cc3[nH]2)c1N` [Example 5-1-547, N-[2-[5-amino-1-[4-(2-fluorophenoxy)-2-methylphenyl]pyrazole-4-carbonyl]-5-fluoro-1H-indol-6-yl]-5-fluoropyridine-3-sulfonamide]: the values for the IC50 at human Yes1 enzyme (setting [1]), at human Src enzyme (setting [1]) and at human Lck enzyme (setting [1]) were 2.9 nM, 350 nM and 30 nM, respectively.

For `CC(C)N1CCC(c2cc3cc(C(=O)c4cnn(-c5ccc(Oc6ccccc6F)cc5F)c4N)[nH]c3cc2F)CC1` [Example 4-2-009, [5-amino-1-[2-fluoro-4-(2-fluorophenoxy)phenyl]pyrazol-4-yl]-[6-fluoro-5-(1-propan-2-ylpiperidin-4-yl)-1H-indol-2-yl]methanone], the IC50 at human Yes1 enzyme (setting [1]) is 0.81 nM; at human Src enzyme (setting [1]), 5.1 nM; at human Lck enzyme (setting [1]) it was 3.4 nM.

In the case of `Cc1cc(Oc2ccccc2F)ccc1-n1ncc(C(=O)c2cc3cc(OC(F)F)c(C4CCN(C(=O)CN)CC4)cc3[nH]2)c1N` [Example 4-18-002, 2-amino-1-[4-[2-[5-amino-1-[4-(2-fluorophenoxy)-2-methylphenyl]pyrazole-4-carbonyl]-5-(difluoromethoxy)-1H-indol-6-yl]piperidin-1-yl]ethanone], the results for the IC50 at human Yes1 enzyme (setting [1]), at human Src enzyme (setting [1]) and at human Lck enzyme (setting [1]) were 5.9 nM, 29 nM and 15 nM, respectively.

On to `Cc1cc2cc(C(=O)c3cnn(-c4ccc(Oc5cccc(F)c5F)cc4C)c3N)[nH]c2cc1N1CCCS1(=O)=O` [Example 4-2-113, [5-amino-1-[4-(2,3-difluorophenoxy)-2-methylphenyl]pyrazol-4-yl]-[6-(1,1-dioxo-1,2-thiazolidin-2-yl)-5-methyl-1H-indol-2-yl]methanone], for which the IC50 is 0.63 nM on human Yes1 enzyme (setting [1]), 18 nM on human Src enzyme (setting [1]) and 7.1 nM at human Lck enzyme (setting [1]).

Turning to `Cc1cc(Oc2c(F)cccc2F)ncc1-n1ncc(C(=O)c2cc3cc(F)c(N4C(=O)NC5(CCC5)C4=O)cc3[nH]2)c1N` [Example 5-1-312, 7-[2-[5-amino-1-[6-(2,6-difluorophenoxy)-4-methylpyridin-3-yl]pyrazole-4-carbonyl]-5-fluoro-1H-indol-6-yl]-5,7-diazaspiro[3.4]octane-6,8-dione], the IC50 worked out at 3.5 nM at human Yes1 enzyme, 160 nM on human Src enzyme and 10 nM at human Lck enzyme.
